This assay deals with mAB/LPS-induced experimental arthritis in male BALB/c mice. Kind of assay: mAb/LPS-induced mice arthritis model. It counts as in vivo. The settings on record: Enbrel 5 mg/kg/day IP. On the procedure:
Treatment Regimen: Compound A was administered by oral gavage (PO), using a suitable stainless steel feeding needle. Enbrel (Reference Item) was administrated by intraperitoneal (IP) injections. Compound A was first administered on study Day 3 (one hour prior to the single LPS injection) and thereafter on Days 4, 5, 6, 7, 8, 9, 10, 11, 12 and 13 (total of 11 successive treatment days) at 1, 5 and 25 mg/kg once daily. Compound A treated groups comprised n=8 BALB/c male mice per dosing group. In addition, two equally sized groups were treated with either Enbrel (5 mg/kg/day, Reference Item), or a solution of 0.5% Na CMC/0.25% Tween 80 (PO, 5 ml/kg, Vehicle Control).
Arthritis Reactions: Both hind paws (left and right) of each animal were examined for signs of arthritogenic responses prior to arthritis induction (Day 0) and thereafter on study days 4, 5, 6, 7, 9, 11 & 14 as selected by the Sponsor. Arthritis reactions were scored and recorded according to a 0-4 scale in ascending order of severity (based on Morwell MD Biosciences Inc. brochure) as shown in Table 1.
Measurements of Experimental Arthritis: Hind paw thickness was determined on eight days using a Mitutoyo Electronic Digital Caliper (on Days 0, 4, 5, 6, 7, 9, 11 and 14) and presented as mean group values of the average for both left and right hind paws.

The mark [1] stands for this setting: Day 0 (prior to arthritis induction).

Enbrel: the “Arthritis Scoring, mean of both hind paws (0-4 scale)” value was 0 under setting [1]; 0 (Day 4); 1 (Day 5); 1 (Day 6); 1**↓ (Day 7); 1***↓ (Day 9). For the same substance, the “Arthritis Scoring, mean of both hind paws (0-4 scale)” value runs as follows: (Day 11) 0***↓; (Day 14) 0**↓. The “Hind Paws Thickness, group mean” value under setting [1] came to 2.2 mm; the “Hind Paws Thickness, group mean” value (Day 4) came out at 2.2 mm; the “Hind Paws Thickness, group mean” value (Day 5) is given as 2.3 mm; the “Hind Paws Thickness, group mean” value (Day 6) is 2.5*↓ mm; the “Hind Paws Thickness, group mean” value (Day 7) is listed as 2.5**↓ mm; the “Hind Paws Thickness, group mean” value (Day 9) is 2.3**↓ mm. In addition, the “Hind Paws Thickness, group mean” value by setting is: (Day 11) 2.3**↓ mm; (Day 14) 2.3**↓ mm. In addition, the “Percentage Change in Hind Paw Thickness vs. Study Commencement (Day 0), group mean” value is given as 0% (Day 4); 6% (Day 5); 13% (Day 6); 12**↓ % (Day 7); 7**↓ % (Day 9); 4**↓ % (Day 11). Besides, the “Percentage Change in Hind Paw Thickness vs. Study Commencement (Day 0), group mean” value (Day 14) was 4**↓ %.

For the origin of these results see patent publication US20090239926A1, “METHODS FOR THE TREATMENT OF PSORIASIS OR PSORIATIC ARTHRITIS USING CYCLOPROPYL-N-CARBOXAMIDE” (priority 2008, published 2009).
